Experiment: Activity coefficients (γi = xidl/xe) of CBZM
Format: physicochemical
Source text: The data for Tfus, ΔHfus, and ΔCp for CBZM were collected from Ref. [20], and they are 462.72 K, 56.93 kJ mol^−1, and 123.03 J mol^−1 K^−1, respectively. Now, Equation (2) was used to determine the xidl values for CBZM. The γi values for CBZM in all cosolvent combinations and pure solvents were obtained using Equation (3):(3) γi=xidl/xe

Activity coefficient (γi) (DMSO mass fraction m = 0.0, T = 298.2 K): 6703 | Activity coefficient (γi) (DMSO mass fraction m = 0.0, T = 303.2 K): 5689 | Activity coefficient (γi) (DMSO mass fraction m = 0.0, T = 308.2 K): 5044 | Activity coefficient (γi) (DMSO mass fraction m = 0.0, T = 313.2 K): 4739 | Activity coefficient (γi) (DMSO mass fraction m = 0.0, T = 318.2 K): 4597 | Activity coefficient (γi) (DMSO mass fraction m = 0.1, T = 298.2 K): 2011 | Activity coefficient (γi) (DMSO mass fraction m = 0.1, T = 303.2 K): 1712 | Activity coefficient (γi) (DMSO mass fraction m = 0.1, T = 308.2 K): 1608 | Activity coefficient (γi) (DMSO mass fraction m = 0.1, T = 313.2 K): 1542 | Activity coefficient (γi) (DMSO mass fraction m = 0.1, T = 318.2 K): 1538 | Activity coefficient (γi) (DMSO mass fraction m = 0.2, T = 298.2 K): 605.5 | Activity coefficient (γi) (DMSO mass fraction m = 0.2, T = 303.2 K): 550.8 | Activity coefficient (γi) (DMSO mass fraction m = 0.2, T = 308.2 K): 521.3 | Activity coefficient (γi) (DMSO mass fraction m = 0.2, T = 313.2 K): 517.5 | Activity coefficient (γi) (DMSO mass fraction m = 0.2, T = 318.2 K): 518.0 | Activity coefficient (γi) (DMSO mass fraction m = 0.3, T = 298.2 K): 187.7 | Activity coefficient (γi) (DMSO mass fraction m = 0.3, T = 303.2 K): 173.5 | Activity coefficient (γi) (DMSO mass fraction m = 0.3, T = 308.2 K): 167.9 | Activity coefficient (γi) (DMSO mass fraction m = 0.3, T = 313.2 K): 169.7 | Activity coefficient (γi) (DMSO mass fraction m = 0.3, T = 318.2 K): 174.4 | Activity coefficient (γi) (DMSO mass fraction m = 0.4, T = 298.2 K): 56.40 | Activity coefficient (γi) (DMSO mass fraction m = 0.4, T = 303.2 K): 55.14 | Activity coefficient (γi) (DMSO mass fraction m = 0.4, T = 308.2 K): 55.29 | Activity coefficient (γi) (DMSO mass fraction m = 0.4, T = 313.2 K): 56.55 | Activity coefficient (γi) (DMSO mass fraction m = 0.4, T = 318.2 K): 59.49 | Activity coefficient (γi) (DMSO mass fraction m = 0.5, T = 298.2 K): 17.42 | Activity coefficient (γi) (DMSO mass fraction m = 0.5, T = 303.2 K): 17.07 | Activity coefficient (γi) (DMSO mass fraction m = 0.5, T = 308.2 K): 17.69 | Activity coefficient (γi) (DMSO mass fraction m = 0.5, T = 313.2 K): 18.40 | Activity coefficient (γi) (DMSO mass fraction m = 0.5, T = 318.2 K): 19.80 | Activity coefficient (γi) (DMSO mass fraction m = 0.6, T = 298.2 K): 5.281 | Activity coefficient (γi) (DMSO mass fraction m = 0.6, T = 303.2 K): 5.524 | Activity coefficient (γi) (DMSO mass fraction m = 0.6, T = 308.2 K): 5.800 | Activity coefficient (γi) (DMSO mass fraction m = 0.6, T = 313.2 K): 6.266 | Activity coefficient (γi) (DMSO mass fraction m = 0.6, T = 318.2 K): 6.776 | Activity coefficient (γi) (DMSO mass fraction m = 0.7, T = 298.2 K): 1.609 | Activity coefficient (γi) (DMSO mass fraction m = 0.7, T = 303.2 K): 1.699 | Activity coefficient (γi) (DMSO mass fraction m = 0.7, T = 308.2 K): 1.853 | Activity coefficient (γi) (DMSO mass fraction m = 0.7, T = 313.2 K): 2.023 | Activity coefficient (γi) (DMSO mass fraction m = 0.7, T = 318.2 K): 2.267 | Activity coefficient (γi) (DMSO mass fraction m = 0.8, T = 298.2 K): 0.4851 | Activity coefficient (γi) (DMSO mass fraction m = 0.8, T = 303.2 K): 0.5430 | Activity coefficient (γi) (DMSO mass fraction m = 0.8, T = 308.2 K): 0.6120 | Activity coefficient (γi) (DMSO mass fraction m = 0.8, T = 313.2 K): 0.6808 | Activity coefficient (γi) (DMSO mass fraction m = 0.8, T = 318.2 K): 0.7771 | Activity coefficient (γi) (DMSO mass fraction m = 0.9, T = 298.2 K): 0.1392 | Activity coefficient (γi) (DMSO mass fraction m = 0.9, T = 303.2 K): 0.1658 | Activity coefficient (γi) (DMSO mass fraction m = 0.9, T = 308.2 K): 0.1932 | Activity coefficient (γi) (DMSO mass fraction m = 0.9, T = 313.2 K): 0.2245 | Activity coefficient (γi) (DMSO mass fraction m = 0.9, T = 318.2 K): 0.2572 | Activity coefficient (γi) (DMSO mass fraction m = 1.0, T = 298.2 K): 0.0455 | Activity coefficient (γi) (DMSO mass fraction m = 1.0, T = 303.2 K): 0.0547 | Activity coefficient (γi) (DMSO mass fraction m = 1.0, T = 308.2 K): 0.0646 | Activity coefficient (γi) (DMSO mass fraction m = 1.0, T = 313.2 K): 0.0771 | Activity coefficient (γi) (DMSO mass fraction m = 1.0, T = 318.2 K): 0.0894
Compound: COc1cc2nccc(Oc3ccc(NC(=O)C4(C(=O)Nc5ccc(F)cc5)CC4)cc3)c2cc1OC [CBZM, Cabozantinib malate]
